Reference: the CheMixHub viscosity set

Assay: xn = mol fraction of the nth substance listed

CC(O)=S + CC(C)=O
298.1 K, 101 kPa
Conditions | viscosity [mPa·s]
x1 = 0.2 | 0.405
x1 = 0.4 | 0.479
x1 = 0.5 | 0.511
x1 = 0.6 | 0.551
x1 = 0.8 | 0.624

CCCC(C)O (stereo not drawn) + CCCCOC(C)=O
viscosity [mPa·s], 100 kPa
Conditions | x2 = 0.0809 | x2 = 0.1601 | x2 = 0.2399 | x2 = 0.3501 | x2 = 0.44 | x2 = 0.56 | x2 = 0.65 | x2 = 0.7398 | x2 = 0.85 | x2 = 0.9399
293.15 K | 2.506 | 1.64 | 1.205 | 0.917 | 0.797 | 0.724 | 0.703 | 0.685 | 0.684 | 0.7
298.15 K | 2.253 | 1.525 | 1.121 | 0.853 | 0.744 | 0.668 | 0.656 | 0.644 | 0.644 | 0.656
303.15 K | 2.018 | 1.419 | 1.05 | 0.805 | 0.688 | 0.62 | 0.605 | 0.6 | 0.599 | 0.618
308.15 K | 1.688 | 1.227 | 0.926 | 0.704 | 0.616 | 0.56 | 0.546 | 0.537 | 0.548 | 0.566
313.15 K | 1.407 | 1.016 | 0.775 | 0.619 | 0.548 | 0.504 | 0.488 | 0.48 | 0.496 | 0.52
318.15 K | 1.139 | 0.816 | 0.614 | 0.497 | 0.455 | 0.424 | 0.416 | 0.421 | 0.448 | 0.476
323.15 K | 0.874 | 0.6 | 0.438 | 0.365 | 0.343 | 0.338 | 0.341 | 0.358 | 0.391 | 0.432

COCCO + CC#N
298 K, 101.33 kPa
Conditions | viscosity [mPa·s]
x1 = 0.097 | 0.391
x1 = 0.1987 | 0.455
x1 = 0.2949 | 0.529
x1 = 0.404 | 0.631
x1 = 0.4985 | 0.736
x1 = 0.5987 | 0.866
x1 = 0.6932 | 0.991
x1 = 0.7991 | 1.171
x1 = 0.9035 | 1.361

CCCCBr + CCC(C)O
viscosity [mPa·s], 101.33 kPa
Conditions | x2 = 0.11 | x2 = 0.208 | x2 = 0.3145 | x2 = 0.3968 | x2 = 0.4998 | x2 = 0.6057 | x2 = 0.7046 | x2 = 0.786 | x2 = 0.8988
298.15 K | 0.613 | 0.642 | 0.689 | 0.742 | 0.833 | 0.975 | 1.176 | 1.428 | 2.018
308.15 K | 0.538 | 0.552 | 0.581 | 0.614 | 0.675 | 0.77 | 0.905 | 1.075 | 1.461
318.15 K | 0.483 | 0.492 | 0.512 | 0.537 | 0.579 | 0.653 | 0.741 | 0.855 | 1.111

CCCC[N+](CCCC)(CCCC)Cc1ccccc1.[Cl-] + OCCOCCO
Conditions | viscosity [mPa·s]
293.15 K, 100 kPa, x1 = 0.25 | 433.5

CCCCNCCCC + ClC(Cl)Cl
298.15 K, 101.3 kPa
Conditions | viscosity [mPa·s]
x1 = 0.102 | 0.639
x1 = 0.199 | 0.717
x1 = 0.3088 | 0.803
x1 = 0.3714 | 0.845
x1 = 0.4997 | 0.904
x1 = 0.6082 | 0.925
x1 = 0.698 | 0.907
x1 = 0.7719 | 0.89
x1 = 0.9007 | 0.852

CC(CC(C)(C)C)CC(C)(C)CC(C)(C)C (stereo not drawn) + CCCCCCCCCCCC
Conditions | viscosity [mPa·s]
323.15 K, 100 kPa, x1 = 0.279 | 1.09

CCCC(C)O (stereo not drawn) + O
298.15 K, 101 kPa
Conditions | viscosity [mPa·s]
x2 = 0.008 | 3.443
x2 = 0.0721 | 3.234
x2 = 0.0934 | 3.182
x2 = 0.1359 | 3.129
x2 = 0.1655 | 3.111
x2 = 0.1981 | 3.104
x2 = 0.2187 | 3.114
x2 = 0.2403 | 3.119
x2 = 0.255 | 3.125
x2 = 0.2971 | 3.163

COCCO + COC(=O)OC
298.15 K, 101.33 kPa
Conditions | viscosity [mPa·s]
x1 = 0.0114 | 0.593
x1 = 0.0258 | 0.594
x1 = 0.0442 | 0.598
x1 = 0.0637 | 0.6
x1 = 0.0769 | 0.603
x1 = 0.0975 | 0.608
x1 = 0.1462 | 0.624
x1 = 0.2295 | 0.658
x1 = 0.2503 | 0.669
x1 = 0.2778 | 0.681
x1 = 0.3223 | 0.704
x1 = 0.34 | 0.713
x1 = 0.4034 | 0.758
x1 = 0.4719 | 0.81
x1 = 0.5173 | 0.848
x1 = 0.5482 | 0.874
x1 = 0.5889 | 0.91
x1 = 0.6404 | 0.96
x1 = 0.7382 | 1.075
x1 = 0.814 | 1.12
x1 = 0.8597 | 1.252
x1 = 0.89 | 1.305
x1 = 0.9189 | 1.355
x1 = 0.9738 | 1.471
x2 = 0.0109 | 1.516

CCCC(C)O (stereo not drawn) + CC1CCCCC1
viscosity [mPa·s], 100 kPa
Conditions | x2 = 0.081 | x2 = 0.16 | x2 = 0.2399 | x2 = 0.3501 | x2 = 0.4399 | x2 = 0.56 | x2 = 0.6499 | x2 = 0.7401 | x2 = 0.8499 | x2 = 0.94
293.15 K | 3.09 | 2.46 | 1.96 | 1.48 | 1.23 | 1.05 | 0.98 | 0.93 | 0.88 | 0.8
298.15 K | 2.56 | 2.05 | 1.66 | 1.26 | 1.06 | 0.92 | 0.86 | 0.82 | 0.79 | 0.73
303.15 K | 2.15 | 1.74 | 1.43 | 1.11 | 0.95 | 0.83 | 0.79 | 0.77 | 0.73 | 0.68
308.15 K | 1.83 | 1.5 | 1.24 | 0.99 | 0.86 | 0.75 | 0.71 | 0.69 | 0.67 | 0.63
313.15 K | 1.57 | 1.31 | 1.1 | 0.89 | 0.78 | 0.7 | 0.67 | 0.65 | 0.63 | 0.59
318.15 K | 1.35 | 1.13 | 0.96 | 0.8 | 0.72 | 0.66 | 0.64 | 0.62 | 0.6 | 0.57
323.15 K | 1.17 | 1 | 0.86 | 0.72 | 0.66 | 0.61 | 0.58 | 0.57 | 0.56 | 0.54

CC(=O)OC(C)C + Cc1cc(C)cc(C)c1
308.15 K, 101 kPa
Conditions | viscosity [mPa·s]
x2 = 0.09942 | 0.4428
x2 = 0.197 | 0.4556
x2 = 0.3029 | 0.4738
x2 = 0.3917 | 0.4812
x2 = 0.4993 | 0.5032
x2 = 0.5992 | 0.5127
x2 = 0.6918 | 0.5289
x2 = 0.7944 | 0.539
x2 = 0.9024 | 0.5596

COCCO + CCC(C)O
viscosity [mPa·s]
Conditions | 298.15 K | 303.15 K | 313.15 K
100 kPa, x1 = 0.1007 | 2.54 | – | 1.61
100 kPa, x1 = 0.202 | 2.2 | – | 1.46
100 kPa, x1 = 0.3022 | 1.98 | – | 1.36
100 kPa, x1 = 0.4018 | 1.83 | – | 1.29
100 kPa, x1 = 0.5022 | 1.73 | – | 1.24
100 kPa, x1 = 0.6017 | 1.66 | – | 1.21
100 kPa, x1 = 0.701 | 1.61 | – | 1.19
100 kPa, x1 = 0.8006 | 1.58 | – | 1.18
100 kPa, x1 = 0.9006 | 1.56 | – | 1.18
101.3 kPa, x1 = 0.1228 | – | 2.584 | –
101.3 kPa, x1 = 0.209 | – | 2.261 | –
101.3 kPa, x1 = 0.3377 | – | 1.898 | –
101.3 kPa, x1 = 0.428 | – | 1.714 | –
101.3 kPa, x1 = 0.5977 | – | 1.488 | –
101.3 kPa, x1 = 0.6442 | – | 1.45 | –
101.3 kPa, x1 = 0.7067 | – | 1.411 | –
101.3 kPa, x1 = 0.8447 | – | 1.368 | –
101.3 kPa, x1 = 0.9188 | – | 1.308 | –

CC(=O)OCC(C)C + Cc1ccc(C)cc1
viscosity [mPa·s], 101 kPa
Conditions | x1 = 0.1104 | x1 = 0.1976 | x1 = 0.2789 | x1 = 0.376 | x1 = 0.4687 | x1 = 0.5742 | x1 = 0.6833 | x1 = 0.7765 | x1 = 0.8703 | x1 = 0.9481
303.15 K | 0.569 | 0.572 | 0.577 | 0.582 | 0.588 | 0.596 | 0.605 | 0.614 | 0.622 | 0.63
313.15 K | 0.511 | 0.512 | 0.514 | 0.516 | 0.519 | 0.526 | 0.536 | 0.547 | 0.558 | 0.57

CCCC(=O)O + Cc1cccc(O)c1
viscosity [mPa·s], 101 kPa
Conditions | x1 = 0.1119 | x1 = 0.2209 | x1 = 0.3191 | x1 = 0.4306 | x1 = 0.5314 | x1 = 0.6298 | x1 = 0.7257 | x1 = 0.8194 | x1 = 0.9108
298.15 K | 10.28 | 8.292 | 6.808 | 5.408 | 4.362 | 3.51 | 2.822 | 2.272 | 1.845
308.15 K | 6.028 | 5.153 | 4.446 | 3.724 | 3.137 | 2.619 | 2.167 | 1.782 | 1.471
318.15 K | 4.743 | 4.158 | 3.662 | 3.14 | 2.707 | 2.316 | 1.957 | 1.621 | 1.293

C[N+](C)(C)C[C@H](O)CC(=O)[O-] + O=C(O)CC(O)(CC(=O)O)C(=O)O
Conditions | viscosity [mPa·s]
298.15 K, 101.33 kPa, x2 = 0.4 | 896.5

COCCO + CCO
viscosity [mPa·s], 101 kPa
Conditions | x1 = 0.06304 | x1 = 0.133 | x1 = 0.206 | x1 = 0.2876 | x1 = 0.3771 | x1 = 0.476 | x1 = 0.5856 | x1 = 0.7078 | x1 = 0.8449
298.15 K | 1.051 | 1.024 | 1.019 | 1.031 | 1.053 | 1.084 | 1.173 | 1.286 | 1.415
308.15 K | 0.8342 | 0.8445 | 0.8576 | 0.8812 | 0.9063 | 0.9409 | 1.003 | 1.07 | 1.105
318.15 K | 0.7622 | 0.7704 | 0.773 | 0.8002 | 0.847 | 0.868 | 0.911 | 0.923 | 0.9633
